Source: paper PMC11274511, “Synthesis of Substituted 1,2,4-Triazole-3-Thione Nucleosides Using E. coli Purine Nucleoside Phosphorylase” (Biomolecules, 2024)
Where two headings read alike, the source gives them in different places.

Columns and labels:
[1] = target: T1, E. coli purine nucleoside phosphorylase (PNP) (Escherichia coli, UniProt P0ABP8); experiment: Test reaction for 2-deoxyriboside synthesis (substrate test, HPLC); type: biochemical; conditions: for Deoxyriboside Content, % 1 h / Deoxyriboside Content, % 24 h: 1 mM base, 2 mM 2′-deoxyuridine, 10 mM KH2PO4, pH 7.0, 5.6 units PNP, 1.7 units UP, 50 °C; for Substrate of E. coli PNP (product formation according to HPLC): test reaction with 2′-deoxyuridine, PNP and UP
T1 construct: made in house; host or cells: E. coli ER2566
Method: Each reaction mixture (0.25 mL, pH 7.0) contained 1 mM of the tested heterocyclic base, 2 mM 2′-deoxyuridine, 10 mM KH2PO4, and Escherichia coli purine nucleoside phosphorylase (5.6 units) and uridine phosphorylase (1.7 units). An activity unit is the amount (in µmol) of natural product (hypoxanthine or uracil) formed per minute. The reaction mixtures were incubated at 50 °C. Substrate and product quantities were determined using HPLC.
The test reactions contained the tested heterocyclic base, 2′-deoxyuridine, and both enzymes (PNP and UP).

Vero E6 cells = experiment: Cytotoxicity, trypan blue exclusion method; conditions: for Reduction of cytotoxicity compared to base 7: ribosylation / deoxyribosylation of base 7
Method: (§1) Cytotoxicity was determined quantitatively by the trypan blue exclusion method. […] Negative control wells contained cells with maintenance medium.
(§2) After 72 h of cell culture incubation in the presence of a compound at a known concentration, the culture medium was harvested, the cells were treated with Versene solution, and suspended in the previously removed support medium. The resulting cell suspension was combined with 1% trypan blue solution in a ratio of 1:1. The number of live and stained cells was determined using a Goryaev camera (Minimed, Bryansk, Russia).

HSV-1/L2(TK+) = experiment: microbe, parasite or virus in culture
Method: (§3) Herpes simplex virus type 1 (HSV-1) strain L2 was obtained from the State’s collection of viruses at FSBI «N. F. Gamaleya National Research Centre for Epidemiology and Microbiology, Russian Ministry of Health, Russia» («D. I. Ivanovsky Institute of Virology» subdivision).
(§4) Antiviral activity in vitro was measured by the method of the cytopathic effect (CPE) inhibition assay. In 96-well plastic plates with the 24 h generated cell monolayer, 2-fold serial dilutions of the compounds were prepared. Cells infected with MOI of 0.1 PFU/cell were incubated at 37 °C in 5% CO2 atmosphere. […] Antiviral activity was assessed by determining of IC50 and IC95.
(§5) Three controls were used: (1) Toxicity control. Uninfected cells were incubated in the presence of the drug in the same concentration range as in the experiment. (2) Virus control. […] (3) Cell control. Uninfected cell cultures were incubated in the maintenance medium, which contained no drug.

HSV-1/L2/R^ACV = experiment: microbe, parasite or virus in culture
Method: as §3, §4, §5

[2] = Cytotoxicity, trypan blue exclusion method; conditions: African green monkey
Method: as §1, §2

AURORA-A = system: AURORA-A; design: method as in earlier work; conditions: cited from earlier work
FLT-3 = system: FLT-3; design: method as in earlier work; conditions: cited from earlier work
c-TAK1 = system: c-TAK1; design: method as in earlier work; conditions: cited from earlier work
[3] = Strain HSV-1/L2(TK+), Vero E6, MOI 0.1 PFU/cell, 48 h
[4] = Strain HSV-1/L2/R^ACV, Vero E6, MOI 0.1 PFU/cell, 48 h
[5] = Vero E6 cells, 72 h, trypan blue
[6] = Vero E6 cells, CC50, Vero E6 cells, 72 h, trypan blue
[7] = Human alphaherpesvirus 1, Vero C1008, 48 h
[8] = Human alphaherpesvirus 1, Vero C1008, 48 h, Strain HSV-1/L2(TK+), Vero E6, MOI 0.1 PFU/cell, 48 h

T1 sequence (P0ABP8 2-239): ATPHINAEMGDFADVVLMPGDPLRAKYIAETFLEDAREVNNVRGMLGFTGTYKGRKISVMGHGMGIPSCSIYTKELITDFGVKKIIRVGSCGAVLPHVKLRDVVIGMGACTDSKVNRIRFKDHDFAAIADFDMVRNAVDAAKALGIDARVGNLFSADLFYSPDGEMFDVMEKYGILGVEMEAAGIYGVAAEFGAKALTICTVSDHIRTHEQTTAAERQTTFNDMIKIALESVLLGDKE

Row | Compound | Deoxyriboside Content, % 1 h [1] [%] | Deoxyriboside Content, % 24 h [1] [%] | Substrate of E. coli PNP (product formation according to HPLC) [1] | SI (ratio of CC50 to IC50) (HSV-1/L2(TK+); Strain HSV-1/L2(TK+)) | IC50 (HSV-1/L2(TK+); [3]) [µM] | SI (ratio of CC50 to IC50) (HSV-1/L2/R^ACV; Strain HSV-1/L2/R^ACV) | CC50 at 72 h [2, 6] [µM] | IC95 (HSV-1/L2(TK+); [7]) [µM] | IC50 (HSV-1/L2(TK+); [8]) [µM] | IC50 (HSV-1/L2/R^ACV; [7]) [µM] | IC95 (HSV-1/L2/R^ACV; [7]) [µM] | also measured
1 | 1,2,4-Triazole-3-thione [Compound 3] | 0 | 0 | did not prove to be substrates | 3 | 618 ± 3.7 | 3 |  |  |  |  |  | CC50 (Vero E6 cells): 1885.7 ± 1.7 µM; IC95 (HSV-1/L2(TK+); [3]): >1236.0 µM; IC50 (HSV-1/L2/R^ACV; [4]): 618 ± 3.7 µM; IC95 (HSV-1/L2/R^ACV; [4]): >1236.0 µM
2 | 5-Phenyl-1,2,4-triazole-3-thione [Compound 4] | 0 | 0 | did not prove to be substrates |  | 2821 ± 25.4 |  |  |  |  |  |  | CC50 (Vero E6 cells): > 5640 µM; CC50 (Vero E6 cells; [5]): > 5640 µM; IC95 (HSV-1/L2(TK+); [3]): >5642.4 µM; IC50 (HSV-1/L2/R^ACV; [4]): 2821 ± 25.4 µM; IC95 (HSV-1/L2/R^ACV; [4]): >5642.4 µM
3 | O=C(CSc1nnc[nH]1)c1ccccc1 [Compound 5, 3-Phenacylthio-1,2,4-triazole] | 94 | 25 | product’s formation was observed | 6 |  | 6 | 3346 ± 26.5 | 2280 ± 20.5 | 570.1 ± 5.1 | 570.1 ± 5.1 | 2280 ± 20.5 | 
4 | CCCCSc1n[nH]c(-c2ccccc2)n1 [Compound 7, 3-Butylthio-5-phenyl-1,2,4-triazole] | 62 | 41 | product’s formation was observed | 3 | 33.5 ± 0.4 | 1 | 91.1 | > 67 | 33.5 | 67 ± 0.8 | > 67 | Increase of toxicity compared to base 4 (Vero E6 cells; CC50 91.07 vs. 5642.39 µM): 62 fold; CC50 (Vero E6 cells; [5]): 91.1 ± 0.7 µM; Activity against kinase AURORA-A (AURORA-A): active; Activity against kinase FLT-3 (FLT-3): active; Activity against kinase c-TAK1 (c-TAK1): active
5 | O=C(CSc1ncn([C@@H]2O[C@H](CO)[C@@H](O)[C@H]2O)n1)c1ccccc1 [Compound 8, 3-Phenacylthio-1-(β-D-ribofuranosyl)-1,2,4-triazole] |  |  |  | >8 |  | >8 | > 3030 | 1520 ± 45.8 | 379 ± 11.4 | 379 ± 11.4 | 3030 ± 91.5 | 
6 | O=C(CSc1ncn([C@H]2C[C@H](O)[C@@H](CO)O2)n1)c1ccccc1 [Compound 9, 1-(2-Deoxy-β-D-ribofuranosyl)-3-phenacylthio-1,2,4-triazole] |  |  |  | 2 |  | 2 | 920 ± 77.2 | 835 ± 51.8 | 418 ± 25.9 | 418 ± 25.9 | 835 ± 51.8 | 
7 | O=C(CSc1nc(-c2ccccc2)nn1[C@@H]1O[C@H](CO)[C@@H](O)[C@H]1O)c1ccccc1 [Compound 10, 5-Phenacylthio-3-phenyl-1-(β-D-ribofuranosyl)-1,2,4-triazole] |  |  |  | 3 |  | 2 | 480 ± 6.2 | 305 ± 8.8 | 152 ± 4.4 | 305 ± 8.8 | 305 ± 8.8 | 
8 | O=C(CSc1nc(-c2ccccc2)nn1[C@H]1C[C@H](O)[C@@H](CO)O1)c1ccccc1 [Compound 11, 1-(2-Deoxy-β-D-ribofuranosyl)-5-phenacylthio-3-phenyl-1,2,4-triazole] |  |  |  | 2 |  | 2 | 244 ± 6.2 | 149 ± 5.1 | 149 ± 5.1 | 149 ± 5.1 | 149 ± 5.1 | 
9 | CCCCSc1nc(-c2ccccc2)nn1[C@@H]1O[C@H](CO)[C@@H](O)[C@H]1O [Compound 12, 5-Butylthio-3-phenyl-1-(β-D-ribofuranosyl)-1,2,4-triazole] |  |  |  | 4 |  | 4 | 657 | 375 ± 6.4 | 188 ± 3.2 | 188 ± 3.2 | 375 ± 6.4 | CC50 (Vero E6 cells; [5]): 658 ± 13.9 µM; Reduction of cytotoxicity compared to base 7 (Vero E6 cells): more than 7 times; Decrease of antiviral activity compared to base 7 (HSV-1/L2(TK+); IC50 based): 6 fold
10 | CCCCSc1nc(-c2ccccc2)nn1[C@H]1C[C@H](O)[C@@H](CO)O1 [Compound 13, 5-Butylthio-1-(2-deoxy-β-D-ribofuranosyl)-3-phenyl-1,2,4-triazole] |  |  |  | 16 | 23.4 ± 0.6 | 8 | 364 ± 6 | 93.8 ± 2.4 | 23.4 | 46.9 ± 1.2 | 93.8 ± 2.4 | Reduction of cytotoxicity compared to base 7 (Vero E6 cells): 4 times
11 | NC(=O)c1ncn([C@@H]2O[C@H](CO)[C@@H](O)[C@H]2O)n1 [Ribavirin, reference compound] |  |  |  |  |  |  |  | > 2050 | 512 ± 20 | 1020 ± 39.9 | > 2050 | CC50 at 72 h [2]: > 2050 µM
